In patent publication EP0719251B1, “BICYCLO (2.2.2) OCTANE DERIVATIVES CHOLECYSTOKININ AND/OR GASTRIN ANTAGONISTS” (JAMES BLACK FOUNDATION LIMITED, priority 1993, dated 1995):

Legend:
CCKB receptor = target: T1, CCKB receptor (Mus musculus, UniProt P56481); experiment: radioligand binding assay at the CCKB receptor in mouse cortical membranes; conditions: [125I]-CCK8S 200pM, 150 min at 21 ± 3°C; for Ki: read-out: CCKB pKi (converted)
T1 construct: The whole brains from male mice (CD1 22-25g; Charles River) were removed; from tissue; host or cells: cerebral cortex membranes of male CD1 mice
T1 sequence (P56481 1-453): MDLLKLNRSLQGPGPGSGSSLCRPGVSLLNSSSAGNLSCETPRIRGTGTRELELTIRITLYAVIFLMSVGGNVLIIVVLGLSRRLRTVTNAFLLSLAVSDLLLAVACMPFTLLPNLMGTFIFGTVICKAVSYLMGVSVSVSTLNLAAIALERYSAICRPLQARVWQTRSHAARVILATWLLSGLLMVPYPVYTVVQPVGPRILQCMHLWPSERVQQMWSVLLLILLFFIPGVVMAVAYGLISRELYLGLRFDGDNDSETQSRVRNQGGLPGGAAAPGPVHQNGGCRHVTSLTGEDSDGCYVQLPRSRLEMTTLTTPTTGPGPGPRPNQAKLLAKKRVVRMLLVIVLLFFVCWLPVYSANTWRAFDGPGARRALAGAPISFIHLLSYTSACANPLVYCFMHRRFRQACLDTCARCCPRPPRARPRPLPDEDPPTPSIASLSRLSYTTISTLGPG
How it was run: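 Radioligand binding was quantified by gamma counting after filtration through GF/B filters and cold 50 mM Tris-HCl (pH 7.4) washes. Tissue source was male CD1 mouse cortex, homogenised and twice centrifuged, then resuspended at 2 mg.ml^-1 original wet weight in pH 7.2 HEPES buffer containing bacitracin.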

CCKA = target: T2, CCKA (Cavia porcellus, UniProt Q63931); experiment: CCKA binding assay in guinea-pig pancreas membranes; conditions: [125I]-CCK8(S) 200pM; for CCKA pKi: containing 0.375 µM PD134,308; for Ki: containing 0.375 µM PD134,308, read-out: CCKA pKi (converted)
T2 construct: The pancreatata were removed from male guinea-pigs (200-300g; Dunkin Hartley); from tissue; host or cells: pancreas membranes of male Dunkin Hartley guinea-pigs
T2 sequence (Q63931 1-430): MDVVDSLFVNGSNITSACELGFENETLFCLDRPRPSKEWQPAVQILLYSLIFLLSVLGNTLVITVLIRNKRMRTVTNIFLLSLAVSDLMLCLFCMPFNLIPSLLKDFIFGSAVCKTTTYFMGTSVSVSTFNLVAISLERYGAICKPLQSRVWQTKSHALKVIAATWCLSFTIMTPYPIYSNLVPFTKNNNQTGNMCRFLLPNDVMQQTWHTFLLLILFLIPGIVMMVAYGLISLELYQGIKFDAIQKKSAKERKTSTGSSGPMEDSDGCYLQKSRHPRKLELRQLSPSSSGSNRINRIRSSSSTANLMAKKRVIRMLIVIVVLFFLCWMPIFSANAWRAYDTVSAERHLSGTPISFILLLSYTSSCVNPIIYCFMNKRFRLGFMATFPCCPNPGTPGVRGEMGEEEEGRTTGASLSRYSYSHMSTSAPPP
How it was run: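 Competition binding of [125I]-CCK8(S) (200 pM in the added solution) to male guinea-pig pancreas membranes (1 mg/ml wet weight) containing 0.375 µM PD134,308, in HEPES buffer pH 7.2. Incubated 150 min at 21 ± 3°, then filtered. Bound radioactivity gamma-counted; non-specific binding defined with 100nM L-364,718.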

gastrin = target: T3, gastrin (Rattus norvegicus, UniProt P30553); experiment: gastrin antagonist activity in an immature rat stomach assay; conditions: isolated immature rat stomach, cumulative pentagastrin dose-response curves, acid secretion; for Kb: read-out: Gastrin pKB (converted)
T3 construct: The stomach was excised and flushed with ca. 1 ml of unbuffered physiological saline solution; from tissue; host or cells: isolated whole stomach of immature rats (33-50 g, ca. 21 days old)
T3 sequence (P30553 1-452): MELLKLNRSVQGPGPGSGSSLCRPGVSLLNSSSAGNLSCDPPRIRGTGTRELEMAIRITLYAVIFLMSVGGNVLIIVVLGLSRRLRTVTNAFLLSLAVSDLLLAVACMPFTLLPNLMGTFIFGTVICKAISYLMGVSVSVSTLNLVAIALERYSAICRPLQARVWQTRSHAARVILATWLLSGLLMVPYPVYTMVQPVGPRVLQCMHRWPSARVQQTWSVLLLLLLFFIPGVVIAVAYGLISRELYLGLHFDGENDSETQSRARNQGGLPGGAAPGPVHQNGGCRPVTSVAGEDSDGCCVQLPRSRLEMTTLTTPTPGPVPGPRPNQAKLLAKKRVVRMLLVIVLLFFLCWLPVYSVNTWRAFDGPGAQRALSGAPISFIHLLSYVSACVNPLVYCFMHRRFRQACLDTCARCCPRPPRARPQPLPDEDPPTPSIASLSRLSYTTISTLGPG
How it was run: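 Isolated stomachs from immature rats (33-50 g, ca. 21 days) perfused at 1 ml min^-1 with O2-gassed unbuffered saline, perfusate pH monitored by electrode. After 120 min stabilisation, compounds added to serosal bath; cumulative pentagastrin dose-response curves begun 60 min later.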

Compound | CCKB pKi (CCKB receptor) | CCKA pKi (CCKA) | Gastrin pKB (gastrin; 60 min) | Ki (CCKB receptor) | Ki (CCKA) | Kb (gastrin)
O=C(O)c1cc(NC(=O)[C@H](CC2CCCCC2)NC(=O)C2C3c4ccccc4C(c4ccccc43)C2C(=O)NCC23CC4CC(CC(C4)C2)C3)cc(C(=O)O)c1 (stereo partly drawn) [Example 5, cis-7-(1S-(3,5-dicarboxyphenylaminocarbonyl) -2-cyclohexylethylaminocarbonyl)-8-(1-adamantanemethylaminocarbonyl) -2,3,5,6-dibenzobicyclo[2.2.2]octane] |  |  |  | 25.1 nM | 1000 nM | 316 nM
O=C(O)c1cc(NC(=O)[C@H](Cc2ccccc2Cl)NC(=O)C2C3c4ccccc4C(c4ccccc43)C2C(=O)NCC23CC4CC(CC(C4)C2)C3)cc(C(=O)O)c1 (stereo partly drawn) [Example 20, cis-7-(1S-(3,5-dicarboxyphenylaminocarbonyl)-2-(2-chlorophenyl) -ethylaminocarbonyl)-8-(1-adamantanemethylaminocarbonyl) -2,3,5,6-dibenzobicyclo [2.2.2] octane] |  |  |  | 10 nM | 2000 nM | 6.31 nM
CC(C)(NC(=O)C1C2c3ccccc3C(c3ccccc32)C1C(=O)N[C@@H](Cc1ccccc1)C(=O)Nc1cc(C(=O)O)cc(C(=O)O)c1)C12CC3CC(CC(C3)C1)C2 (stereo partly drawn) [Example 49, cis-7-(1S-(3,5-dicarboxyphenylaminocarbonyl)-2-phenylethylaminocarbonyl)-8-(1-(1-adamantane)-1-methyl-ethylaminocarbonyl) -2,3,5,6-dibenzobicyclo[2.2.2]octane] |  |  |  | 63.1 nM | 2510 nM | 10 nM
O=C(O)c1cc(NC(=O)[C@H](Cc2cccs2)NC(=O)C2C3c4ccccc4C(c4ccccc43)C2C(=O)NCC23CC4CC(CC(C4)C2)C3)cc(C(=O)O)c1 (single isomer, unassigned) [Example 7, cis-7-(1S-(3,5-dicarboxyphenylaminocarbonyl) -2-(2-thiophenyl)ethylaminocarbonyl)-8-(1-adamantanemethylaminocarbonyl) -2,3,5,6-dibenzobicyclo[2.2.2]octane] |  |  |  | 50.1 nM | 501 nM | 251 nM
O=C(O)c1cc(NC(=O)[C@H](Cc2ccccc2)NC(=O)C2C3c4ccccc4C(c4ccccc43)C2C(=O)NCC23CC4CC(CC(C4)C2)C3)cc(C(=O)O)c1 (single isomer, unassigned) [Example 1, cis-7-(1S-(3,5-dicarboxyphenylamino-carbonyl) -2-phenylethylaminocarbonyl)-8-(1-adamantanemethylamino-carbonyl) -2,3,5,6-dibenzobicyclo[2.2.2] octane] |  |  |  | 1.58 nM | 2000 nM | 5.01 nM

Other lines, results leading:

CCKB pKi (CCKB receptor) | CCKA pKi (CCKA) | Gastrin pKB (gastrin; 60 min) | Ki (CCKB receptor) | Ki (CCKA) | Kb (gastrin) | Compound
6.5 | 6.1 | 6.9 |  |  |  | O=C(O)c1cc(NC(=O)[C@H](Cc2ccc3ccccc3c2)NC(=O)C2C3c4ccccc4C(c4ccccc43)C2C(=O)NCC23CC4CC(CC(C4)C2)C3)cc(C(=O)O)c1 (single isomer, unassigned) [Example 14, cis-7-(1S-(3,5-dicarboxyphenylaminocarbonyl)-2-(2-naphthyl) -ethylaminocarbonyl)-8-(1-adamantanemethylaminocarbonyl)-2,3,5,6-dibenzobicyclo[2.2.2]octane]
 |  |  | 12.6 nM | 1000 nM | 7.94 nM | O=C(O)c1cc(NC(=O)[C@H](Cc2ccc(F)cc2)NC(=O)C2C3c4ccccc4C(c4ccccc43)C2C(=O)NCC23CC4CC(CC(C4)C2)C3)cc(C(=O)O)c1 (single isomer, unassigned) [Example 8, cis-7-(1S-(3,5-dicarboxyphenylaminocarbonyl) -2-(4-fluorophenyl)-ethylaminocarbonyl)-8-(1-adamantane-methylaminocarbonyl)-2,3,5,6-dibenzobicyclo[2.2.2]octane]
 | 5.6 |  | 39.8 nM |  | 63.1 nM | O=C(O)c1cc(CNC(=O)[C@H](Cc2ccccc2)NC(=O)C2C3c4ccccc4C(c4ccccc43)C2C(=O)NCC23CC4CC(CC(C4)C2)C3)cc(C(=O)O)c1 (single isomer, unassigned) [Example 62, cis-7-(1S-(3,5-dicarboxyphenylmethylaminocarbonyl)-2-phenylethylaminocarbonyl)-8-(1-adamantanemethyl-aminocarbonyl)-2,3,5,6-dibenzobicyclo[2.2 .2]octane]
 |  |  | 501 nM | 2510 nM | 398 nM | O=C(O)c1cc(NC(=O)[C@@H](NC(=O)C2C3c4ccccc4C(c4ccccc43)C2C(=O)NCC23CC4CC(CC(C4)C2)C3)c2ccccc2)cc(C(=O)O)c1 (stereo partly drawn) [Example 39, cis-7-(1S-(3,5-dicarboxyphenylaminocarbonyl) -3-phenylmethylaminocarbonyl)-8-(1-adamantanemethylaminocarbonyl) -2,3,5,6-dibenzobicyclo[2.2.2]octane]
 |  |  | 50.1 nM | 1260 nM | 63.1 nM | O=C(O)c1cc(NC(=O)[C@@H](Cc2cccs2)NC(=O)C2C3c4ccccc4C(c4ccccc43)C2C(=O)NCC23CC4CC(CC(C4)C2)C3)cc(C(=O)O)c1 (single isomer, unassigned) [Example 21, cis-7-(1R-(3,5-dicarboxyphenylaminocarbonyl)-2-(2-thiophenyl)ethylaminocarbonyl)-8-(1-adamantanemethylaminocarbonyl)-2,3,5,6-dibenzobicyclo[2.2.2]octane]
 |  |  | 15.8 nM | 1260 nM | 15.8 nM | O=C(O)c1cc(NC(=O)[C@@H](Cc2ccccc2)NC(=O)C2C3c4ccccc4C(c4ccccc43)C2C(=O)NCC23CC4CC(CC(C4)C2)C3)cc(C(=O)O)c1 (single isomer, unassigned) [Example 4, cis-7-(1R-(3,5-dicarboxyphenylaminocarbonyl)-2-phenylethylaminocarbonyl)-8-(1-adamantananethylaminocarbonyl) -2,3,5,6-dibenzobicyclo[2.2.2]octane]
 |  |  | 10 nM | 501 nM | 25.1 nM | O=C(O)c1cc(NC(=O)[C@H](Cc2ccccc2)NC(=O)C2C3c4ccccc4C(c4ccccc43)C2C(=O)NCc2cccc3ccccc23)cc(C(=O)O)c1 (single isomer, unassigned) [Example 32, cis-7-(1S-(3,5-dicarboxyphenylaminocarbonyl)-2-phenylethylaminocarbonyl)-8-(1-naphthalenemethylaminocarbonyl) -2,3,5,6-dibenzobicyclo [2.2.2]octane]
 |  |  | 6.31 nM | 794 nM | 10 nM | O=C(O)c1cc(NC(=O)[C@H](Cc2ccccc2F)NC(=O)C2C3c4ccccc4C(c4ccccc43)C2C(=O)NCC23CC4CC(CC(C4)C2)C3)cc(C(=O)O)c1 (single isomer, unassigned) [Example 17, cis-7-(1S-(3,5-dicarboxyphenylaminocarbonyl)-2-(2-fluorophenyl)ethylaminocarbonyl)-8-(1-adamantanemethylaminocarbonyl) -2,3,5,6-dibenzobicyclo[2.2.2]octane]
